Assay results reported in PMC7583931 (International Journal of Molecular Sciences, 2020).
Read-outs that look alike come from different tables or passages of the source.

How the values were obtained:
[1] = target: T1, hOCTN2 (carnitine/organic cation transporter OCTN2, SLC22A5) (Homo sapiens, UniProt O76082); test: inhibition of L-carnitine uptake in hOCTN2-transfected cells; assay type: cell-based; settings: 10 µM carnitine with (N-methyl-3H)-carnitine tracer, Na+ buffer pH 7.4, 37 °C
T1 sequence (O76082 1-557): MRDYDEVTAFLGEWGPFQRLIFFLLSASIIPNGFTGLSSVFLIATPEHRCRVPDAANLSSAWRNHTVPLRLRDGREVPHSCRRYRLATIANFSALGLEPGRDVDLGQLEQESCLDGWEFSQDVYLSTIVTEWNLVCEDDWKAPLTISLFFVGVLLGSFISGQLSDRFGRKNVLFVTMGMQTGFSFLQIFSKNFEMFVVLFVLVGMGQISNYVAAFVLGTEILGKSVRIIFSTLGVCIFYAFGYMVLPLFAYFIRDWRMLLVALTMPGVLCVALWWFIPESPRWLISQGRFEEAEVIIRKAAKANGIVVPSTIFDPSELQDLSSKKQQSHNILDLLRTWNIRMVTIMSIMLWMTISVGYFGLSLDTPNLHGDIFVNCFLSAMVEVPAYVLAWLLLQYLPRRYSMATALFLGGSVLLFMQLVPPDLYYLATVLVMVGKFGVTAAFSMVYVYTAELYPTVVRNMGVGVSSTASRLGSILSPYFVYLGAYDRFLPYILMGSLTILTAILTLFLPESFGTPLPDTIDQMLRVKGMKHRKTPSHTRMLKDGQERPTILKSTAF

[2] = target: T2, Human BBOX (γ-butyrobetaine hydroxylase) (Homo sapiens, UniProt O75936); test: carnitine formation from gamma-butyrobetaine by UPLC/MS/MS; assay type: biochemical
T2 construct: gene BBOX1; human recombinant enzyme
T2 sequence (O75936 1-387): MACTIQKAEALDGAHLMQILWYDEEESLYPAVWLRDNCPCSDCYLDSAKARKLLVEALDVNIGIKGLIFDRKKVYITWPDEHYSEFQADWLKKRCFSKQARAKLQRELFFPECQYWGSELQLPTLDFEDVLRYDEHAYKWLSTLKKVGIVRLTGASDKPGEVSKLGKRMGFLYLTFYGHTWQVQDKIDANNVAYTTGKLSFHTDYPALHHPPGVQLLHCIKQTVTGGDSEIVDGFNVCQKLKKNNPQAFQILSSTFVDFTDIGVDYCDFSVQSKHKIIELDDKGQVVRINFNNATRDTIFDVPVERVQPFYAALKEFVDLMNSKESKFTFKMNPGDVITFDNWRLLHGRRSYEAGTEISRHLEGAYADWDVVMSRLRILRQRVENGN
Text: carnitine formation from gamma-butyrobetaine by UPLC/MS/MS on Human BBOX (γ-butyrobetaine hydroxylase)

SMILES | carnitine uptake in presence of 50 μM compound [1] | IC50 [2] [µM] | IC50 ([2]; 200 µM GBB, 3 mM 2-oxoglutarate, 0.25 mM ferrous ammonium sulfate, 10 mM ascorbate, pH 7.0, 37 °C, 15 min preincubation) [µM]
C[N+](C)(C)CCCC(=O)Nc1ccc([N+](=O)[O-])cc1 [4k] | significantly inhibited by TCL substrates, including 4i, 4j, and 4k | 78 ± 16 | –
Cc1ccc(NC(=O)CCC[N+](C)(C)C)cc1C [4j] | – | 97 ± 17 | –
C[N+](C)(C)CCCC(=O)NCCCc1ccccc1 [4t] | – | – | 76 ± 13
